Measurements: publication PMC12154214, “Bioactive Peptides from Sodium Caseinate Hydrolysate with High Oral Absorption Regulate Blood Glucose in Type 2 Diabetic Mice via Inhibition of DPP-IV and Stimulation of GLP-1” (Foods, 2025)
“Also recorded” adds a separate entry of the source. Where two headings read alike, the source gives them in different places. One block for each compound: values may come before it. No end group written: not given here.

Legend:
STC-1 cells = assay: In vitro GLP-1 secretion in STC-1 cells; type: cell-based; conditions: STC-1 cells, 2.0, 2.5 and 3.0 mM, 3 h
Experimental: (§1) NCI-H716 and STC-1 enteroendocrine cell lines are widely conducted to investigate the mechanisms of GLP-1 expression. The STC-1 and NCI-H716 cell lines in this study were sourced from Bioresource Collection and Research (BCRC, Hsinchu, Taiwan). STC-1 cells were seeded in 12-well plates at 2 × 10^6 cells/mL, while NCI-H716 cells were seeded in Matrigel-coated 12-well plates at 2 × 10^5 cells/mL. Upon reaching 85% confluence, the supernatants were replaced with HEPES buffer for STC-1 and RPMI-1640 buffer without FBS for NCI-H716. […] After incubating at 37 °C with 5% CO2 for 3 h, the supernatants were harvested and assessed for GLP-1 levels using the active glucagon-like peptide-1 kit from Millipore Corp. (Billerica, MA, USA).

db/db mice = assay: Oral glucose tolerance test (OGTT) in db/db mice; type: in vivo; conditions: week 3, glucose 2 g/kg, 120 min, 1CBR 500 mg/kg/day, sitagliptin 20.5 mg/kg/day, p < 0.05
Experimental: In this study, db/db mice (BKS.Cg-Dock7m+/+Leprdb/JNarl from National Laboratory Animal Center, Taipei, Taiwan) 5 weeks of age and weighing 22–25 g were analyzed. The mice were given the 5001-Laboratory Rodent Diet (LabDiet®, St. Louis, MO, USA), which comprised 57% carbohydrate, 13% fat, and 30% protein by total kcal.
An OGTT was conducted on mice fasted overnight from each group at week 0 and week 3. Blood samples were collected by retro-orbital bleed at 0 to 120 min following a glucose challenge (2 g/kg) to determine glucose levels using a Glucose GOD-PAP kit (Randox Laboratories Ltd., Crumlin, UK).

NCI-H716 cells = assay: In vitro GLP-1 secretion in NCI-H716 cells; type: cell-based, human; conditions: NCI-H716 cells, 2.0, 2.5 and 3.0 mM, 3 h
Experimental: as §1

active GLP-1 = assay: Plasma active GLP-1 level in db/db mice; type: in vivo; conditions: after 3-week treatment, 1CBR 500 mg/kg/day, sitagliptin 20.5 mg/kg/day, group C 5.22
Experimental: (§2) Between the ages of 6 and 8 weeks, the blood glucose concentrations in the mice were monitored weekly. Diabetes was determined in mice when the blood glucose levels surpassed 400 mg/dL after an OGTT test (oral glucose tolerance). The mice were randomly allocated to three groups, each consisting of 13 individuals. The experimental period lasted for 3 weeks. […] Mice were housed in groups of 3–4 per cage. The sample size was determined based on previous studies and ethical considerations (3Rs principle) to achieve adequate statistical power without excessive animal use. […] This dose was also within the effective range reported for other food-derived bioactive protein hydrolysates in rodent models.
(§3) At week 3, blood samples were obtained from all mice into EDTA-treated chilled tubes and then centrifuged at 3000× g for 15 min. The supernatant was kept on ice for up to 3 h for further analysis. Plasma insulin levels and DPP-IV activity were determined using an insulin ELISA kit (Mercodia AB, Uppsala, Sweden) and a DPP-IV assay kit (Enzo Inc., Farmingdale, NY, USA), respectively. Plasma total GLP-1 levels were measured using the glucagon-like peptide-1 (total) kit from RayBiotech Inc. (Norcross, GA, USA), while active GLP-1 levels were assessed with the active GLP-1 kit from Millipore Corp. (Billerica, MA, USA), each from a different supplier.

total GLP-1 = assay: Plasma total GLP-1 level in db/db mice; type: in vivo; conditions: after 3-week treatment, 1CBR 500 mg/kg/day, sitagliptin 20.5 mg/kg/day
Experimental: as §2, §3

plasma insulin = assay: Plasma insulin level in db/db mice (ELISA); type: in vivo; conditions: after 3-week treatment, 1CBR 500 mg/kg/day, sitagliptin 20.5 mg/kg/day, untreated group C 6.51
Experimental: as §2, §3

DPP-IV = biological target: T1, DPP-IV (Sus scrofa, UniProt P22411); assay: In vitro DPP-IV inhibition assay; type: biochemical, porcine; conditions: synthesized peptides, in vitro enzymatic assay
T1 construct: purchased Sigma-Aldrich D7052; host or cells: porcine kidney (tissue-derived)
From the text: Sodium caseinate was obtained from Gemfont Inc. (Taipei, Taiwan). Bromelain, derived from pineapple stem, was obtained from STBIO Media Inc. (New Taipei, Taiwan). Dipeptidyl peptidase-IV (DPP-IV; D7052, sourced from porcine kidney), Gly-Pro-p-nitroanilide, HEPES sodium salt (H3784), and RPMI-1640 medium (R8758) were obtained from Sigma-Aldrich (St. Louis, MO, USA). The remaining chemicals and reagents were of analytical grade and were available from commercial suppliers.
In this study, 1CBR was purified by RP-HPLC using a Model L-2130 HPLC system (Hitachi Ltd., Katsuda, Japan). Afterward, 2 mg of the lyophilized hydrolysate fraction was reconstituted in 1 mL of ddH2O, and 60 μL of the resulting solution was subjected to injection onto a ZORBAX Eclipse Plus C18 column (4.6 mm × 250 mm, Agilent Tech. Inc., Santa Clara, CA, USA) for analysis. A gradient of acetonitrile, ranging from 5% to 60% over 60 min, was applied in 0.1% TFA at 0.7 mL/min. Peptides were monitored at 220 nm. After collection, each fraction was lyophilized and stored in a desiccator for future use. The fractions were then re-dissolved in 100 mM Tris buffer (pH 7.0) to achieve a 1 mg/mL concentration and were evaluated for in vitro DPP-IV inhibitory activity. The assay for DPP-IV inhibition was conducted following the procedure outlined in our previous study.
The selected peptides were generated through Fmoc-based solid-phase peptide synthesis using an automated synthesizer (CS 136, CS Bio Co., San Carlos, CA, USA). Their structural integrity and purity were confirmed via RP-HPLC-MS/MS analysis. To assess their inhibitory potential against DPP-IV, the IC50 values were determined through in vitro enzymatic assays. […]

[1] = MALDI-TOF/TOF check of intact peptide in rat plasma; type: in vivo, Sprague–Dawley rats; conditions: 60 min post-administration, oral 16 mg/kg BW
Experimental: A 0.6 μL aliquot of peptide solution (1 mg/mL) was mixed with an equal volume of saturated α-cyano-4-hydroxycinnamic acid matrix and then air-dried on the target plate. The dried sample was subsequently analyzed using MALDI-TOF/TOF MS in positive ion reflection mode under a 20 kV accelerating voltage. Mass spectra were generated by averaging 200 laser shots within an m/z range of 200–2500 Da. Tandem mass spectrometry (MS/MS) was performed to determine peptide sequences, with data processed using BioTools software (Version 3.2, Bruker Daltonics, Billerica, MA, USA).
To verify that the peaks observed in the RP-HPLC chromatogram corresponded to the intact peptides GPFPLPD and […], plasma samples from rats with or without peptide administration were analyzed by MALDI-TOF/TOF, as described in Section 2.4.2.

[2] = parameters: species or system Sprague–Dawley rats; conditions: rat, in vivo; for AR30 (absorption ratio at 30 min) / AR90 (absorption ratio at 90 min) / AUC / Cmax / Fractional absorption / Tmax / half-life: po, 16 mg/kg
From the text: In this study, GPFPLPD and […] peptides were synthesized and prepared for the in vivo absorption study as outlined in Section 2.4. The experiment involved ten male Sprague–Dawley rats (LASCO, Taipei, Taiwan), each 6 weeks old and weighing between 230 and 250 g. Prior to the experiment, the rats were allowed a 7-day acclimatization period, during which they were fed a 5012-Rat Diet (LabDiet®, St. Louis, MO, USA), consisting of 60% carbohydrates, 13% fat, and 27% protein based on total caloric content. The rats were randomly assigned to two groups (5 rats per group) and orally administered a single dose of either GPFPLPD or […] peptide at 16 mg/kg body weight.
Overnight-fasted rats were administered the peptides, and blood samples were collected from the tail vein at 0, 30, 60, 90, and 180 min post-administration. To obtain plasma, the samples were centrifuged at 3000× g for 15 min at 4 °C. A 500 µL aliquot of plasma was then combined with an equal volume of acetonitrile, followed by additional centrifugation at 1200× g for 10 min at 4 °C to precipitate high-molecular-weight proteins. The resulting supernatant (20 µL) was analyzed via RP-HPLC under the conditions outlined in Section 2.4. Peptide concentrations were quantified using calibration curves from peptide standards prepared in 50% (v/v) acetonitrile (Figure S4). The estimated blood volume of male rats was 6.86 mL per 100 g of body weight.
The pharmacokinetic parameters, including the half-life (t1/2), area under the plasma drug concentration–time curve (AUC), time-to-peak concentration (Tmax), and peak concentration (Cmax), were directly determined and analyzed. The absorption ratio (ARt; %) was defined as the percentage of the administered peptide dose (16 mg/kg BW) present in plasma, calculated as the product of peptide concentration and blood volume at each time point. The AUC method was also employed to quantify peptide absorption. The fractional absorption (%) of orally administered peptides was calculated using the following formula [23]: Fractional absorption (%)=ln2/t1/2×calculated oral AUC×plasma volume/oral dose×100

[3] = parameters: method as in PMID 25387326; conditions: adult Wistar rats, 40 mg/kg BW; cited from earlier work
[4] = parameters: method as in PMID 38581395; conditions: rat model, cited from earlier work
[5] = parameters: method as in PMID 29732892; conditions: rats, single oral dose 100 mg/kg body weight; cited from earlier work

T1 sequence (P22411 whole entry): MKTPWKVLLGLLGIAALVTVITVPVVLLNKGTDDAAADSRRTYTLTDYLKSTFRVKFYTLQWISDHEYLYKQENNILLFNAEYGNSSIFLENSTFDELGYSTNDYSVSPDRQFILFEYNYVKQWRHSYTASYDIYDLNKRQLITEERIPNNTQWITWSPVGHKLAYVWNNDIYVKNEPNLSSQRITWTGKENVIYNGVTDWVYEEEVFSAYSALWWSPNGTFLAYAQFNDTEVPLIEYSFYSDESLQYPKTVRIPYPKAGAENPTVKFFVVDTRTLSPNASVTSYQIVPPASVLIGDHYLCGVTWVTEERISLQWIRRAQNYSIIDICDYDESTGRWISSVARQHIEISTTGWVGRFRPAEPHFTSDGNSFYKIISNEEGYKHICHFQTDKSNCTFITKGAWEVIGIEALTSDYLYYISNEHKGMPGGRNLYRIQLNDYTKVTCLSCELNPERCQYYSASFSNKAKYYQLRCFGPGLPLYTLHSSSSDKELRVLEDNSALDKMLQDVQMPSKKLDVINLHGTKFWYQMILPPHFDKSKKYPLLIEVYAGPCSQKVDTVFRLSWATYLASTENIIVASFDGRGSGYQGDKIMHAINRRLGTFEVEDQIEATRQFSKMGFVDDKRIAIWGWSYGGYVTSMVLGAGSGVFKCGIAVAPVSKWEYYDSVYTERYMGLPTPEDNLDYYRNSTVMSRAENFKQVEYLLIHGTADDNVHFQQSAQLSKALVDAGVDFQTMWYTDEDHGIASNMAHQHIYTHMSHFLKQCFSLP

Compound: N[C@@H](CC(=O)N1CCn2c(nnc2C(F)(F)F)C1)Cc1cc(F)c(F)cc1F [sitagliptin]
effect on GLP-1 secretion (in words) (STC-1 cells): did not influence GLP-1 secretion; also recorded: failed to induce GLP-1 secretion
OGTT AUC compared to group C (db/db mice): significantly lower AUC values
effect on GLP-1 secretion (in words) (NCI-H716 cells): did not influence GLP-1 secretion; also recorded: failed to induce GLP-1 secretion
plasma active GLP-1 level (active GLP-1): 12.29 pM
plasma total GLP-1 level (total GLP-1): unchanged
plasma insulin level (plasma insulin): 11.31 µg/L

IC50 (DPP-IV): 73.1 µM
structural integrity in plasma (MALDI-TOF/TOF) [1]: remained structurally intact
oral bioavailability [2]: 19.12%
AR30 (absorption ratio at 30 min) [2]: 12.74 ± 2.17%
AR90 (absorption ratio at 90 min) [2]: 12.40 ± 1.97%
AUC [2]: 66600 ng·h/mL
Cmax [2]: 44600 ± 9330 ng/mL
Fractional absorption [2]: 10.8%
Tmax [2]: 1 h
half-life [2]: 1.82 h
Compound: APDSGNFR

IC50 (DPP-IV): 642 µM
Compound: GGHLFFC [GGHLFFC]

IC50 (DPP-IV): 839 µM
Compound: GGKPSSMT

IC50 (DPP-IV): 99.1 µM
structural integrity in plasma (MALDI-TOF/TOF) [1]: remained structurally intact
oral bioavailability [2]: 11.28%
AR30 (absorption ratio at 30 min) [2]: 10.21 ± 1.48%
AR90 (absorption ratio at 90 min) [2]: 6.52 ± 0.66%
AUC [2]: 40200 ng·h/mL
Cmax [2]: 26100 ± 4120 ng/mL
Fractional absorption [2]: 7.2%
Tmax [2]: 1 h
half-life [2]: 1.65 h
Compound: GPFPLPD [GPFPLPD]

Compound: HLPLP
Cmax [3]: 20.1 ng/mL
absolute bioavailability [3]: 5.18%

Compound: IRW
elimination half-life ([4]; intravenous injection): 0.475 h
elimination half-life ([4]; oral administration): 0.132 h
bioavailability [4]: 11.7%

Compound: WDHHAPQLR [antioxidative peptide]
bioavailability [5]: 3.56%
elimination half-life [5]: 1.19 h
